Experimental data: US20240423914A1, “AMIDE CONTAINING LIPIDS” (Acuitas Therapeutics, Inc., priority 2023, published 2024)

System: human IgG in mouse serum
Experiment: Immunoglobulin G (IgG) mRNA in vivo evaluation using lipid nanoparticle compositions (human IgG ELISA of mouse serum)
Set-up: species or system CD-1/ICR mice
Conditions: lipid formulated as LNP (cationic lipid/DSPC/cholesterol/PEG lipid) with IgG mRNA, tail vein injection, mice, serum measured 24 hours after administration; for Serum IgG (ug/mL) @ 0.3 mg/kg: 0.3 mg mRNA/kg; for Serum IgG (ug/mL) @ 1.0 mg/kg: 1.0 mg mRNA/kg
Protocol: A lipid of Formula (I), DSPC, cholesterol and PEG-lipid of Formula (II) are solubilized in ethanol at a molar ratio of 50:10:38.5:1.5 or 47.5:10:40.7:1.8. Lipid nanoparticles (LNP) are prepared at a total lipid to mRNA weight ratio of approximately 10:1 to 40:1. Briefly, the mRNA is diluted to 0.2 mg/mL in 10 to 50 mM citrate buffer, pH 4 to 6 or 10 to 25 mM acetate buffer, pH 4 to 6. Syringe pumps are used to mix the ethanolic lipid solution with the mRNA aqueous solution at a ratio of about 1:5 to 1:3 (vol/vol) with total flow rates above 15 mL/min. The ethanol is then removed, and the external buffer replaced with PBS by dialysis. Finally, the lipid nanoparticles are filtered through a 0.2 μm pore sterile filter.
Studies are performed in 6-8-week-old CD-1/ICR mice (Charles River or Inotiv) according to guidelines established by an institutional animal care committee (ACC) and the Canadian Council on Animal Care (CCAC). Varying doses of mRNA-lipid nanoparticle are systemically administered by tail vein injection and animals euthanized at a specific time point (e.g., 24 hours) post-administration. The whole blood is collected, and the serum subsequentially separated by centrifuging the tubes of the whole blood at 2000×g for 10 minutes at 4° C. and stored at −80° C. until use for analysis.
For immunoglobulin G (IgG) ELISA (Life Diagnostics Human IgG ELISA kit), the serum samples are diluted at 100 to 20,000 fold with 1× diluent solution. 100 μL of diluted serum is dispensed into anti-human IgG coated 96-well plate in duplicate alongside human IgG standards and incubated in a plate shaker at 150 rpm at 25° C. for 45 minutes. The wells are washed 5 times with 1× wash solution using a plate washer (400 μL/well). 100 μL of HRP conjugate is added into each well and incubated in a plate shaker at the same condition above. The wells are washed 5 times again with 1× wash solution using a plate washer (400 μL/well). 100 μL of TMB reagent is added into each well and incubated in a plate shaker at the same condition above. The reaction is stopped by adding 100 μL of Stop solution to each well. The absorbance is read at 450 nm (A450) with a microplate reader. The amount of human IgG in mouse serum is determined by plotting A450 values for the assay standard against human IgG concentration.
Representative compounds of the disclosure shown in Table 2 were formulated using the following molar ratio: 50% cationic lipid/10% distearoylphosphatidylcholine (DSPC)/38.5% Cholesterol/1.5% PEG lipid 2-[2-(ω-methoxy(polyethyleneglycol2000)ethoxy]-N,N-ditetradecylacetamide) or 47.5% cationic lipid/10% DSPC/40.7% Cholesterol/1.8% PEG lipid. Relative activity was determined by measuring the amount of human IgG in mouse serum as described in Example 2. The activity was compared at a dose of 1.0 or 0.3 mg mRNA/kg and expressed as ng luciferase/g liver measured 4 hours after administration, as described in Example 1 or as μg IgG/mL serum measured 24 hours after administration, as described in Example 2. Compound numbers in Table 2 refer to the compound numbers of Table 1.

Row | Compound | Serum IgG (ug/mL) @ 0.3 mg/kg | Serum IgG (ug/mL) @ 1.0 mg/kg
1 | CCCCCCCCCCN(CCCCCCCCCC)C(=O)CCCCCCCN(CCCCCCCC(=O)N(CCCCCCCCCC)CCCCCCCCCC)C(=O)CN(C)C [Compound I-4, N,N-didecyl-8-(N-(8-(didecylamino)-8-oxooctyl)-2-(dimethylamino)acetamido)octanamide] | 24.2 ± 4.5 µg/mL | 
2 | CCCCCCCCCCN(CCCCCCCCN(CCCCCCCC(=O)N(CCCCCCCCCC)CCCCCCCCCC)C(=O)C(F)CCN(C)C)C(=O)CCCCCCCCC (stereo not shown) [Compound I-3, N-decyl-N-(8-(N-(8-(didecylamino)-8-oxooctyl)-4-(dimethylamino)-2-fluorobutanamido)octyl)decanamide] | 16.2 ± 4.3 µg/mL | 52.7 ± 8.4 µg/mL
3 | CCCCCCCCCCN(CCCCCCCCCC)C(=O)CCCCCCCN(CCCCCCCC(=O)N(CCCCCCCCCC)CCCCCCCCCC)C(=O)OCCCN(C)C [Compound I-7, 3-(dimethylamino)propyl bis(8-(didecylamino)-8-oxooctyl)carbamate] | 30.8 ± 7.5 µg/mL | 
4 | CCCCCCCCCCN(CCCCCCCCCC)C(=O)CCCCCCCCCN(CCCCCCCCCC(=O)N(CCCCCCCCCC)CCCCCCCCCC)C(=O)OCCCN(C)C [Compound I-8, 3-(dimethylamino)propyl bis(10-(didecylamino)-10-oxodecyl)carbamate] | 10.6 ± 5.0 µg/mL | 
5 | CCCCCCCCCCN(CCCCCCCCN(CCCCCCCC(=O)N(CCCCCCCCCC)CCCCCCCCCC)C(=O)CN(C)C)C(=O)CCCCCCCCC [Compound I-5, N-decyl-N-(8-(N-(8-(didecylamino)-8-oxooctyl)-2-(dimethylamino)acetamido)octyl)decanamide] | 25.9 ± 11.8 µg/mL | 73.4 ± 14.9 µg/mL
6 | CCCCCCCCCCCCN(CCCCCCCCCCN(CCCCCCCCCCN(CCCCCCCCCCCC)C(=O)CCCCCCC)C(=O)OCCCN1CCCC1)C(=O)CCCCCCC [Compound I-20, 3-(pyrrolidin-1-yl)propyl bis(10-(n-dodecyloctanamido)decyl)carbamate] | 7.9 ± 3.6 µg/mL | 
7 | CCCCCCCCCCN(CCCCCCCCCC)C(=O)CCCCCCCN(CCCCCCCC(=O)N(CCCCCCCCCC)CCCCCCCCCC)C(=O)OCCN(C)C [Compound I-6, 2-(dimethylamino)ethyl bis(8-(didecylamino)-8-oxooctyl)carbamate] | 20.5 ± 4.0 µg/mL | 197.5 ± 39.3 µg/mL
8 | CCCCCCCCCCN(CCCCCCCCCC)C(=O)CCCCCCCCC(CCCCCCCCC(=O)N(CCCCCCCCCC)CCCCCCCCCC)OC(=O)CCCCN(C)C [Compound I-9, 1,19-bis(didecylamino)-1,19-dioxononadecan-10-yl 5-(dimethylamino)pentanoate] | 13.4 ± 7.5 µg/mL | 59.5 ± 25.6 µg/mL
9 | CCCCCCCCCCN(CCCCCCCCCC)C(=O)CCCCCCCCC(CCCCCCCCC(=O)N(CCCCCCCCCC)CCCCCCCCCC)N(CCCCCCCCCC)C(=O)CCN(C)C [Compound I-1, N^1,N^1,N^19,N^19-tetrakis(decyl)-10-(N-decyl-3-(dimethylamino)propanamido)nonadecanediamide] | 18.5 ± 6.7 µg/mL | 
10 | CCCCCCCCCCN(CCCCCCCCCC)C(=O)CCCCCCCN(CCCCCCCC(=O)N(CCCCCCCCCC)CCCCCCCCCC)C(=O)C(F)CCN(C)C (stereo not shown) [Compound I-2, N,N-didecyl-8-(N-(8-(didecylamino)-8-oxooctyl)-4-(dimethylamino)-2-fluorobutanamido)octanamide] | 23.2 ± 6.1 µg/mL | 69.8 ± 18.2 µg/mL
11 | CCCCCCCCCCN(CCCCCCCCCC)C(=O)CCCCCC(CCCCCC(=O)N(CCCCCCCCCC)CCCCCCCCCC)OC(=O)CCCN(C)C [Compound I-18, 1,13-bis(didecylamino)-1,13-dioxotridecan-7-yl 4-(dimethylamino)butanoate] | 18.0 ± 2.0 µg/mL | 
12 | CCCCCCCCCCN(CCCCCCCCCC)C(=O)CCCCCCCCC(CCCCCCCCC(=O)N(CCCCCCCCCC)CCCCCCCCCC)OC(=O)CCCN(C)C [Compound I-10, 1,19-bis(didecylamino)-1,19-dioxononadecan-10-yl 4-(dimethylamino)butanoate] | 19.0 ± 3.3 µg/mL | 
13 | CCCCCCCCCCN(CCCCCCCCCC)C(=O)CCCCCCCCC(CCCCCCCCC(=O)N(CCCC)C(CCCCCCCC)CCCCCCCC)N(CCCCCCCCCC)C(=O)CCN(C)C (stereo not shown) [Compound I-17, N^1-butyl-N^19,N^19-didecyl-10-(n-decyl-3-(dimethylamino)propanamido)-N-(heptadecan-9-yl)nonadecanediamide] | 10.1 ± 4.03 µg/mL | 
14 | CCCCCCCCCCN(CCCCCCCCCC)C(=O)CCCCCCCCC(CCCCCCCCC(=O)N(CCCCCCCCCC)CCCCCCCCCC)N(CCCCCCCCCC)C(=O)C(F)CCCN(C)C (stereo not shown) [Compound I-12, N^1,N^1,N^19,N^19-tetrakis(decyl)-10-(n-decyl-5-(dimethylamino)-2-fluoropentanamido)nonadecanediamide] | 13.9 ± 4.7 µg/mL | 
